The text below walks through data of article PMC10536189 (Microorganisms, 2023).

This test relates to multidrug-resistant (MDR) Mycobacterium tuberculosis. Type of test: cell-based. Conditions: Peptide 14D at 1 µg/mL; low inoculum.

“Also recorded” adds a separate entry of the source.

For the substance wkivfwwrr-CONH2 [Peptide 14D], the “Effect on growth of multidrug-resistant MTB” value is “reducing the lag time before growth starts; also recorded: increased growth”.
